Experimental data taken from patent US20190175783A1, “High-Throughput Method for Detecting Tooth Stain Prevention and Removal” (Johnson & Johnson Consumer Inc., priority 2017, published 2019).

How the values were obtained:
[1] = Stain prevention test (450 nm absorbance of stain displaced after pre-treatment)
Experimental: Stain Prevention Test Procedure: • 1. Form a pellicle coat on hydroxyapatite (HAp) particles by mixing the particles with saliva and incubating the mixture. • 2. Transfer HAp particle/saliva suspension into a large batch filter container. • 3. Filter the saliva supernatant to waste. • 4. Treat pellicle coated HAp particles, sending the supernatant to waste. • 5. Filter the treated, pellicle coated HAp particles, sending the supernatant to waste. • 6. Stain the pre-treated pellicle coated HAp particles by adding a stain solution directly to the filter container and incubate. • 7. Wash any loosely bound stain off the pre-treated, pellicle coated HAp particles. • 8. Elute the stain from the stained, pre-treated, pellicle coated HAp particles 5% PPi solution. • 9. Filter and collect supernatant. • 10. Make UV-Vis absorbance measurements on collected supernatant.
A mass of 1 gram of hydroxyapatite particles (Bio-Rad, Hercules, Calif., catalogue 1570020) was suspended in artificial saliva at a concentration of 10 milligram/100 microliter and allowed to incubate for 15 minutes at 37° C. to form a pellicle coating. A volume of 100 microliter per sample was aliquoted into respective filter vesicle (96-well filter plate or filter tube) and the supernatant was filtered out from the particles (n=3 per sample treatment). The treatment solutions were prepared within a range of 0% to 2% polyphosphate solution in water. The stock 2% w/v solution was serial diluted 1:1 in water to achieve treatment concentrations of polyphosphates of 1%, 0.5%, 0.25%, 0.125%, 0.0625%, and 0.03125% w/v. The 0% solution was a water control. The pellicle coated hydroxyapatite particles were exposed to 200 microliter of treatment solution of polyphosphate for at least 1 minute at room temperature with agitation (120 rpm). The treatment was removed by filtration and the particles were exposed to 100 microliter of a 10% instant coffee stain solution and incubated at 37° C. for 30 minutes. The coffee was removed by filtration and the particles were washed of any loosely bound stain. The residual stain on the particles was displaced with 200 microliter of an alkaline 5% pyrophosphate solution by incubating at room temperature for 10 minutes. The displaced stain was collected in a 96-well plate and absorbance measurements were made (Tecan, Infinite M200 Pro) between 230 and 1000 nm with a 10 nm step increase between measurements. The absorbance at 450 nm was used as a measure of stain prevention, with the lower absorbance values indicating more stain prevented from attaching to hydroxyapatite particle.

[2] = Stain removal test (450 nm absorbance of stain removed)
Experimental: • 1. Form a pellicle coat on hydroxyapatite (HAp) particles by mixing the particles with saliva and incubating the mixture. • 2. Transfer HAp particle/saliva suspension into a large batch filter container. • 3. Filter the saliva supernatant to waste. • 4. Stain particles by adding a stain solution directly to the filter container and incubate. • 5. Transfer stained, pellicle coated HAp particle suspension into filter container. • 6. Filter the stained, pellicle coated HAp particles, sending the supernatant to waste. • 7. Re-suspend stained, pellicle coated HAp particles in water, and optionally store for future testing. • 8. Prepare stained, pellicle coated HAp particles for treatment. • 9. Treat stained HAp particles. • 10. Filter and collect the supernatant. • 11. Make UV-Vis absorbance measurements on collected supernatant.
A mass of one gram of hydroxyapatite powder (Bio-Rad, Hercules, Calif., catalogue 1570020) was suspended in artificial saliva (Northeast Laboratories, Winslow, Me., catalogue no. T0300) at a concentration of 10 milligram/100 microliter and allowed to incubate for 15 minutes at 37° C. to form a pellicle coating. The supernatant was filtered out from the particles. The particles were re-suspended in 10% instant coffee stain solution at a concentration of 10 milligram/100 microliter and incubated at 37° C. for 30 minutes. The coffee solution was removed by filtration and the particles were washed of any loosely bound stain. The now coffee stained, pellicle coated hydroxyapatite particles were suspended in water at a concentration of 10 milligram/100 microliter. A volume of 100 microliter per sample was aliquoted into respective filter vesicle (96-well filter plate or filter tube) and the supernatant was filtered out from the particles (n=3 per sample). The treatment solutions were prepared within a range of 0% to 2% polyphosphate solution in water. The stock 2% w/v solution was serial diluted 1:1 in water to achieve treatment concentrations of polyphosphates of 1%, 0.5%, 0.25%, 0.125%, 0.0625%, and 0.03125% w/v. The 0% solution was a water control. After, the stained hydroxyapatite particles were exposed to 200 microliter of respective treatment for 1 or 2 minutes at room temperature with agitation (120 rpm). The polyphosphate treatment solutions ranged from 0.031% to 2% w/v. A negative control, using distilled water as the treatment solution, was tested as a comparison to the polyphosphate treatment solutions. […] Subsequently, absorbance measurements (Tecan, Infinite M200 Pro) were made between 230 and 1000 nm with a 10 nm step increase between measurements. The absorbance at 450 nm was used as a measure of stain removed, where higher absorbance values indicated more stain displaced from the hydroxyapatite particles.

[3] = concentration from 0.500% to 2.00%
[4] = concentration increased from 0.031% to 0.500%

Substance: polyphosphate [polyphosphate solutions]
- stain prevention, effect of pre-treatment time ([1]; 1-, 2- and 10-minute stain prevention pre-treatments): no significant difference
- level of stain removal (450 nm absorbance of displaced stain) [1, 3]: remained constant
- stain prevention (450 nm absorbance) [1, 4]: stain prevention increased
- 450 nm absorbance values of stain displaced as a function of concentration ([1]; polyphosphate 0.031% to 2% w/v in water, 1-, 2- and 10-minute pre-treatments, 10% instant coffee stain, FIG. 2): clear dose response
- stain removal, effect of treatment time ([2]; 1 versus 2 minute treatments): no significant difference
- level of stain removal (450 nm absorbance) [2, 3]: remained constant
- stain removal (450 nm absorbance) [2, 4]: stain removal increased
- 450 nm absorbance values of stain removed as a function of concentration ([2]; polyphosphate 0.031% to 2% w/v in water, 1- and 2-minute treatments, 10% instant coffee stain, FIG. 1): clear dose response
